Earlier results in EP3697221B1, “AQUEOUS SUSPENSION CONCENTRATES BASED ON 2-[(2,4-DICHLOROPHENYL)-METHYL]-4,4'-DIMETHYL-3-ISOXAZOLIDINONE” (Bayer Aktiengesellschaft, priority 2017, dated 2019).

Details: water

SMILES	Wasserlöslichkeit
CC1(C)CON(Cc2ccc(Cl)cc2Cl)C1=O [DCPMI, 2-[(2,4-Dichlorphenyl)-methyl]-4,4'-dimethyl-3-isoxazolidinone]	39,5 ppm
CC1(C)CON(Cc2ccccc2Cl)C1=O [Clomazone, 2-(2-chlorobenzyl)-4,4-dimethyl-1,2-oxazolidin-3-one]	1000 ppm
